Test results published in publication PMC6743424, “Phenolic acid phenethylesters and their corresponding ketones: Inhibition of 5‐lipoxygenase and stability in human blood and HepaRG cells” (Pharmacology Research & Perspectives, 2019).
pIC50: −log10 of the molar value. Read-outs that look alike come from different tables or passages of the source.

Legend:
5‐LO [1] = target: T1, 5‐LO (Homo sapiens, UniProt P09917); test: Ex vivo whole blood stimulation with opsonized zymosan, 5‐LO products; format: cell-based; design: endogenous in cells; host or cells: human polymorphonuclear leukocytes isolated from heparinized blood; settings: 5‐LO product biosynthesis in whole blood, mean (95% confidence interval)
T1 sequence (P09917 1-674): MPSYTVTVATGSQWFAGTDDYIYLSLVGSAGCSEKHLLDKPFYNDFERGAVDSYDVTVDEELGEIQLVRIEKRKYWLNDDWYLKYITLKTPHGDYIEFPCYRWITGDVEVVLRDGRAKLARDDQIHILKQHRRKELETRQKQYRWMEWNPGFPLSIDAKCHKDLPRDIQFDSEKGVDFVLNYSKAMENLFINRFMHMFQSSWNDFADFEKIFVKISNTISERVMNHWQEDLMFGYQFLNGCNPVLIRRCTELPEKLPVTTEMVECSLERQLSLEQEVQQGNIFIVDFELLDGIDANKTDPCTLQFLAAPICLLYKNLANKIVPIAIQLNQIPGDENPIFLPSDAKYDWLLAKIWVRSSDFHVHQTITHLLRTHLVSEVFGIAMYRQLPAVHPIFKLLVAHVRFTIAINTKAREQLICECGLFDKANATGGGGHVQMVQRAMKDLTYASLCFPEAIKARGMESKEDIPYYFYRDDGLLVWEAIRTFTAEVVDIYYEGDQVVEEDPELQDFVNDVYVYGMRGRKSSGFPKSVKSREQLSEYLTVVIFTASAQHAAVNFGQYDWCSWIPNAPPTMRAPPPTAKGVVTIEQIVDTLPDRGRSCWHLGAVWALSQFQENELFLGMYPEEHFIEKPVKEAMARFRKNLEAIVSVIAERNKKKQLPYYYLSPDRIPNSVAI
Protocol: Blood was collected in tubes containing heparin as anticoagulant. Test compounds or their diluent control (DMSO, 0.1%) were added to 1 mL of heparinized blood at the indicated concentrations and incubated for 5 minutes in a water bath at 37°C. Stimulation was initiated with the addition of 125 μL of 40 mg/mL of opsonized zymosan, samples were then gently vortexed and incubated at 37°C for 30 minutes.34 Samples were then centrifuged at 960g for 10 minutes at 4°C, plasma was removed and added to tubes containing 4 volumes of CH3OH:CH3CN (1:1) containing 100 ng/mL of PGB2 as internal standard. Samples were stored overnight at −20°C, and then centrifuged at 3300g for 10 minutes. Samples were then purified on C18 cartridges, were eluted with CH3OH, dried under nitrogen, resuspended in 46% of CH3OH:CH3CN (1:1), and analyzed using RP‐HPLC as described above.

5‐LO [2] = target: T1, 5‐LO; design: endogenous in cells; host or cells: human polymorphonuclear leukocytes isolated from heparinized blood; method as in PMID 22347509, PMID 28680195; settings: read-out: IC50 of LT biosynthesis in isolated human neutrophils; cited from earlier work
[3] = design: method as in PMID 17394337, PMID 15358316, PMID 19544289; settings: carboxylesterase; cited from earlier work
5‐LO [4] = target: T1, 5‐LO; design: endogenous in cells; host or cells: human polymorphonuclear leukocytes isolated from heparinized blood; method as in PMID 22347509, PMID 28680195; settings: read-out: IC50 of LT biosynthesis in whole blood; cited from earlier work
[5] = design: method as in PMID 17394337, PMID 15358316, PMID 19544289; settings: oral administration to rats; cited from earlier work
5‐LO [6] = target: T1, 5‐LO; test: Biosynthesis of 5‐LO products in stimulated HEK293 cells expressing 5‐LO and FLAP; format: cell-based; design: expressed in transfected cells; host or cells: HEK293 cells (ATCC), stably transfected; settings: 1 μmol/L, 5 min preincubation; 10 μmol/L A23187 + 10 μmol/L arachidonic acid 15 min
Protocol: HEK293 cells were obtained from ATCC (Manassas) and were cultured in Dulbecco’s Modified Eagle Medium (DMEM) supplemented with 10% fetal bovine serum. Cells were stably transfected with 5‐lipoxygenase and 5‐lipoxygenase activating protein (FLAP) as previously described.31
Transfected HEK293 cells were collected and resuspended in Hank's balanced salt solution (HBSS, Lonza) containing 1.6 mmol/L CaCl2 at a concentration of 5 × 10^5 cells/mL, and were preincubated with each compound at concentration of 1 µmol/L for 5 minutes at 37°C. Cells were then stimulated for 15 minutes at 37°C with the addition of 10 µmol/L calcium ionophore A23187 (Sigma‐Aldrich) and 10 µmol/L arachidonic acid (Cayman Chemical).28 Stimulations were stopped by adding 0.5 volume of cold CH3OH:CH3CN (1:1) containing 100 ng/mL of prostaglandin B2 (PGB2) as internal standard. Samples were stored at −20°C and analyzed for 5‐LO products using reversed‐phase high‐performance liquid chromatography (RP‐HPLC) as described previously.32
Figure 2 The structures of the tested compounds (A) and their effects on the biosynthesis of 5‐LO products in transfected HEK293 cells (B). HEK293 cells expressing 5‐LO and FLAP were incubated in presence of the indicated compounds (1 μmol/L) or their diluent (Control, 0.1% DMSO) for 5 minutes, followed by the addition of 10 μmol/L calcium ionophore A23187 and 10 μmol/L arachidonic acid for 15 minutes. Reactions were then stopped, and samples were processed for analysis of 5‐LO products using RP‐HPLC. Total 5‐LO products measured represent the sum of LTB4, its trans isomers and 5‐hydroxyeicosatetraenoic acid. Data are expressed as means ± SEM of at least three independent experiments. *Difference from control as determined using one‐way ANOVA with Dunnett's multiple comparison test (P < .05)

SMILES | pIC50 (5‐LO [1]) | also measured
O=C(/C=C/c1cc(O)ccc1O)CCc1ccccc1 [compound 8] | 5.94 | 
O=C(/C=C/c1ccc(O)c(O)c1)OCCc1ccccc1 [CAPE (2), caffeic acid phenethyl ester, reference compound] | 5.45 | pIC50 (5‐LO [2]): 6.30; Stability in rat plasma [3]: rapidly hydrolyzed to caffeic acid; pIC50 (5‐LO [4]): 5.74; Major metabolite in urine [5]: caffeic acid
COc1cc(/C=C/C(=O)CCc2ccccc2)cc(OC)c1O [compound 10, sinapic acid phenethyl ketone] | 5.92 | 
O=C(/C=C/c1ccc(O)c(O)c1)CCCc1ccccc1 [compound 7] | 5.64 | 
O=C(/C=C/c1cc(O)ccc1O)OCCc1ccccc1 [compound 5] | 6.00 | Inhibition of biosynthesis of 5‐LO products in transfected HEK293 cells (5‐LO [6]): very good inhibitory activity
